Assay results reported in ChEMBL document CHEMBL1201862, “PubChem BioAssay data set” (2004).
Activity calls are given as the source filed them.

Key:
cells [1] = format: functional, cell-based
cells [2] = format: functional, cell-based; remark: listed apart in the source
[3] = blockers of HIV-1 ZM109 envelope-driven cell-cell fusion – HeLa effector, CEM target cells, luciferase, cherry-pick, dose response (AID 652058); format: functional, cell-based;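 also: luciferase signal from HIV-1 Env mediated cell-cell fusion of effector and target cells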
[4] = off-target signal loss in HeLa-CEM21 co-culture – HeLa F-luc CTL cells, cherry-picked, counter-screen for HIV-1 Env fusion inhibitor project, dose response (AID 652040); format: functional, cell-based;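 also: potency for signal decrease marking cytotoxic or nonspecific inhibition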
[5] = blockers of HIV-1 envelope-mediated cell-cell fusion – cherry-pick, dose response (AID 652057); format: functional, cell-based
[6] = luciferase reporter signal suppression in cells – H4 neuroglioma cells, luminescence, dose response (AID 1990); format: functional, cell-based
[7] = Luminescence Cell-Based Dose Response HTS to Identify Inhibitors of 5'UTR Stem-Loop Driven Prion Protein mRNA Translation in H4 Neuroglioblastoma Cells. [Related pubchem assays: 1827 (Project Summary), 1813 (Primary HTS)]; format: functional
[8] = target: T1, Ubiquitin-conjugating enzyme E2 N (Homo sapiens, UniProt P61088); format: functional;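 also: Dose-response confirmation in a TR-FRET assay detecting UBC13-driven polyubiquitin chain formation, inhibition measured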
T1 sequence (P61088 whole entry): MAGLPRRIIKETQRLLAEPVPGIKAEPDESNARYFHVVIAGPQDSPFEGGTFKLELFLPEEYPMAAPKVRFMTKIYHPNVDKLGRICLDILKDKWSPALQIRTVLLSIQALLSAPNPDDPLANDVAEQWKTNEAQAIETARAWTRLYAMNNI

[9] = alpha-synuclein stem-loop luciferase translation blockers – H4 neuroglioma cells, luminescence, confirmation (AID 1988); format: functional, cell-based
[10] = Luminescence Cell-Based Dose Confirmation HTS to Identify Activators of 5'UTR Stem-Loop Driven Alpha-Synuclein mRNA Translation in H4 Neuroglioblastoma Cells. [Related pubchem assays: 1829 (Project Summary), 1814 (Primary HTS)]; format: functional
[11] = Luminescence Cell-Based Dose Response HTS to Identify Activators of Luciferase Translation or Activity in H4 […] Cells. [Related pubchem assays: 1829 (Project Summary), 1814 (Primary HTS)]; format: functional
H4 = test: Luminescence Cell-Based Dose Response HTS to Identify Activators of 5'UTR Stem-Loop Driven Prion Protein mRNA Translation in H4 Neuroglioblastoma Cells. [Related pubchem assays: 1829 (Project Summary), 1814 (Primary HTS)]; format: functional; conditions: Homo sapiens
[12] = target: Induced myeloid leukemia cell differentiation protein Mcl-1 (Homo sapiens, UniProt Q07820); format: functional
Protein RecA = target: T2, Protein RecA (Mycobacterium tuberculosis, UniProt P9WHJ3); test: Fluorescence Cell-Free Homogeneous Dose Retest to Identify Inhibitors of RecA-Intein Splicing Activity. [Related pubchem assays (depositor defined):AID2097, AID2223, AID489010, AID492950]; format: functional
T2 sequence (P9WHJ3 whole entry): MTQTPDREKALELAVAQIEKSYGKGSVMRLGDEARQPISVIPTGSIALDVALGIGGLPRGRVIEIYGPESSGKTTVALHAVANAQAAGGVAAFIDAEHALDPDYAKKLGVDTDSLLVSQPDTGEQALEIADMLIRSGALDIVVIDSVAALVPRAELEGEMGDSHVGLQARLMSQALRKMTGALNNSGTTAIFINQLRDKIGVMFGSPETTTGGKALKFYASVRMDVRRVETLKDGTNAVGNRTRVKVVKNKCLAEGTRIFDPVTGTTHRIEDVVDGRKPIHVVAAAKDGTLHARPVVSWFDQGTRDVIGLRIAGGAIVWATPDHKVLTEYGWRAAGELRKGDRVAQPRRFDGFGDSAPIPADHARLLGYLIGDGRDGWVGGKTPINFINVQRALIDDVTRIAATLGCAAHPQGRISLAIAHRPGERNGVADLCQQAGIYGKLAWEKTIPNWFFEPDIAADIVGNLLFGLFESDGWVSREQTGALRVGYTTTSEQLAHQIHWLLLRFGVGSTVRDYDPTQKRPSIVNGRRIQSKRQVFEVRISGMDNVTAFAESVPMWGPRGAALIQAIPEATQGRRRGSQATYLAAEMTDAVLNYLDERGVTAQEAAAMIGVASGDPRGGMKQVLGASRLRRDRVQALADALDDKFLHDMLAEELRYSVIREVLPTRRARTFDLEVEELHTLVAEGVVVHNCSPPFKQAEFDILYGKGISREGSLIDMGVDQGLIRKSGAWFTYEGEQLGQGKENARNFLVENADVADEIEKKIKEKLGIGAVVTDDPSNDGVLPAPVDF

[13] = target: T3, Replicative DNA helicase DnaB (Mycobacterium tuberculosis, UniProt P9WMR3); test: DnaB intein splicing inhibitors, dose response, biochemical, cell-free fluorescence (AID 449749); format: functional
T3 sequence (P9WMR3 whole entry): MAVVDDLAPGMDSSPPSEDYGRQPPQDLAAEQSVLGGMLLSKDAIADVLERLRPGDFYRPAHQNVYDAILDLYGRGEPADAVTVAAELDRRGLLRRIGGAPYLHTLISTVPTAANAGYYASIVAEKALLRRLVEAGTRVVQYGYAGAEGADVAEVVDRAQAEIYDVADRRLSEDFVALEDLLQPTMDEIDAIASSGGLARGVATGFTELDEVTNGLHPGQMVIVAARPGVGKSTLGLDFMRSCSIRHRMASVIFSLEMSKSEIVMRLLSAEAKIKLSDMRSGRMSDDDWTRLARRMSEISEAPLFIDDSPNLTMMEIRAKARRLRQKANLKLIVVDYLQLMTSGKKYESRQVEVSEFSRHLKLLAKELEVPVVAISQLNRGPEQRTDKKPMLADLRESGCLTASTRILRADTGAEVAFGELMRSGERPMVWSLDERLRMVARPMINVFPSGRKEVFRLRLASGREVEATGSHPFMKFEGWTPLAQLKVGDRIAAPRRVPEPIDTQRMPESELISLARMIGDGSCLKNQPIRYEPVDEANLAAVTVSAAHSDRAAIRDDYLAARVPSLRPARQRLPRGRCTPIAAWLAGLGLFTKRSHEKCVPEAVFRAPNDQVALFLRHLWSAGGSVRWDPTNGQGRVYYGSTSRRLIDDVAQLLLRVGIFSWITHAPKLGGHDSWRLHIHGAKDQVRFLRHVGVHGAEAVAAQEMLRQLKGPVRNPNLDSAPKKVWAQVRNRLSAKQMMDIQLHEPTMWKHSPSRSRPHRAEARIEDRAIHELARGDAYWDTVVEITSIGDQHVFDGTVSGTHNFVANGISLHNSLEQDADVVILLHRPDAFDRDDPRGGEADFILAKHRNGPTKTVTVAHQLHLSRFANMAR

Genome polyprotein = Genome polyprotein (dengue virus type 2, UniProt P29990); test: flavivirus cap methylation enzyme inhibition – biochemical, confirmation dose response, primary screen (AID 588689); format: functional
[14] = HIV-1 AD8 envelope cell-cell fusion blockers – cherry-pick, dose response (AID 652062); format: functional, cell-based;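 also: luciferase signal from cell-cell fusion driven by HIV-1 clade B AD8 Env; potency is for inhibitors of fusion seen as a drop in luminescence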
Fatty acid synthase [15] = target: T4, Fatty acid synthase (Homo sapiens, UniProt P49327); test: inhibition of human FAS-TE enzyme activity – biochemical, endpoint fluorescence intensity, uHTS hits, dose response (AID 624327); format: functional;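 also: fluorescence from hydrolysis of an O-methyl fluorescein acyl ester substrate by the enzyme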
Fatty acid synthase [16] = target: T4, Fatty acid synthase; test: inhibition of human FAS-TE enzyme activity – biochemical, kinetic fluorescence intensity, dose response (AID 624326); format: functional;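 also: rate of fluorescence rise from hydrolysis of a fluorogenic O-methyl fluorescein ester substrate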
[17] = Trypanosoma cruzi growth suppression in host cells – NIH3T3 host cells, beta-gal luminescence, confirmation (AID 2044); format: functional, cell-based;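 also: intracellular parasites grown in NIH/3T3 mouse fibroblasts as host cells; luminescent beta-galactosidase reporter signal from transgenic T. cruzi replicating inside host cells; inhibitors lower the luminescence signal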
[18] = NIH3T3 cell viability loss – ATP luminescence, mouse fibroblasts, counter-screen, dose response (AID 2010); format: functional, cell-based;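 also: cells exposed to compound for about 90 hours before reading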
[19] = NIH-3T3 fibroblast cytotoxicity, dose response, cytotoxicity control, cell-based, fluorescence, Alamar Blue, secondary assay (AID 2327); format: functional;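 also: NIH-3T3 mouse fibroblasts cultured with fluconazole at 8 µg/mL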
[20] = fluconazole-exposed Candida albicans growth modulators – fluorescence, retest, confirmation (AID 2467); format: functional, cell-based

For `CCOP(=O)(C#CC(C)(C)C)C1(O)CCCCC1` (stereo not given), the EC50 (cells [1]) was > 350 µM (not active) and the EC50 (cells [2]) was > 350 µM (not active).

For `O=C(C1CCCCC1)N1CCCC(c2nc(O)c3nnn(Cc4ccccc4)c3n2)C1` (stereo not given), the AC50 [3] was 18.5 µM (active), the AC50 [4] was > 70 µM (inactive) and the AC50 [5] was 11.1 µM (active).

For `CCOC(=O)c1cc(-c2ccc(OC)cc2F)nc2c1c(C)nn2CCC#N`, the EC50 [6] was 17.7 µM (active), the EC50 [7] was 20.2 µM (active) and the IC50 [8] was > 20 µM (inactive). For the same compound, the EC50 [9] was 23.3 µM (active).

In the case of `CC(C)(C)C1=CC=C(C(C)(C)C)C(=O)C1=O`, the EC50 [10] is reported as > 120 µM (not active), the EC50 [11] is reported as > 120 µM (not active) and the EC50 (H4) is reported as > 120 µM (not active). The IC50 [12] was 3.86 µM (active).

With `Cc1ccccc1N1C(=O)C(Cl)=C(N2CCOCC2)C1=O` the EC50 (Protein RecA) was 4.98 µM (active), the AC50 [13] was 13 µM (active) and the IC50 (Genome polyprotein) was 43.7 µM (active).

With `COC(=O)[C@@]12CCCN1[C@H](c1ccc(-c3ccc(F)cc3)c(OC)c1)[C@H]1C(=O)N(C)C(=O)[C@H]12` the AC50 [3] was 1.38 µM (active), the AC50 [14] was 25.5 µM (active) and the AC50 [5] was 2.93 µM (active).

For `Cc1ccc(C(=O)NCCSC(C)(C)C)cc1[N+](=O)[O-]`, the IC50 (Fatty acid synthase [15]) was 11.7 µM (active) and the IC50 (Fatty acid synthase [16]) was 8.25 µM (active).

With `O=C(Nc1cc(S(=O)(=O)N2CCOCC2)ccc1O)c1ccc2c(c1)S(=O)(=O)c1ccccc1C2=O` the IC50 (Genome polyprotein) was 49.6 µM (active).

In the case of `CCc1cccc(NC(=O)C2CCN(S(=O)(=O)c3ccc4c(c3)CC(C)N4C(C)=O)CC2)c1` (stereo not given), the AC50 [3] is reported as 6.68 µM (active), the AC50 [14] is reported as 10.6 µM (active) and the AC50 [4] is reported as 48.5 µM (active). For the same compound, the AC50 [5] was 30.3 µM (active).

For `CC[C@H](C)Cc1cn([C@@H](CCCN=C(NC(=O)OC(C)(C)C)NC(=O)OC(C)(C)C)C(=O)NCCCCCCCCCCC(=O)N2CCN(C(=O)OC(C)(C)C)CC2)nn1`, the IC50 [8] was > 20 µM (inactive), the EC50 [17] was 1.04 µM (active) and the EC50 [18] was > 30 µM (not active). The EC50 [19] was 83.3 µM (inconclusive) and the EC50 [20] was > 38 µM (not active).

With `CC[C@@]12C(=O)N(c3ccc(OC)cc3)C(=O)N1[C@H](c1ccc(Cl)cc1)[C@@H]1C(=O)N(C3CCCCC3)C(=O)[C@@H]12` the AC50 [3] was 0.379 µM (active), the AC50 [14] was 0.607 µM (active) and the AC50 [4] was 0.407 µM (active). For the same compound, the AC50 [5] was < 0.26 µM (active).

With `CC(=O)c1ccc(OCCCC(=O)NNC(=O)c2ccccn2)cc1` the IC50 [8] was > 20 µM (inactive).

With `COc1cc(C(=O)NCCc2nc3ccccc3n2C)cc(OC)c1OC` the EC50 (cells [1]) was > 350 µM (not active) and the EC50 (cells [2]) was > 350 µM (not active).

With `CCNC(=O)c1ccccc1NC(=O)c1cccc(S(=O)(=O)N2CCC(C)CC2)c1` the IC50 [8] was > 20 µM (inactive).

In the case of `O=C(O)CCc1ccc(-c2ccc(Br)cc2)n1-c1ccc(O)cc1`, the IC50 (Genome polyprotein) is reported as > 100 µM (active).
